Reference: the supplement of paper PMC10307832

Experiments:
Experiment in all cases: relative viability (nuclei count vs DMSO), 5 days (fraction); higher = more cells survive
[1] = compound: CC1(C)CCC(CN2CCN(c3ccc(C(=O)NS(=O)(=O)c4ccc(NCC5CCOCC5)c([N+](=O)[O-])c4)c(Oc4cnc5[nH]ccc5c4)c3)CC2)=C(c2ccc(Cl)cc2)C1 [Venetoclax]
Outline: (§1)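 Five library-drug doses, separated by factors of √10, were pinned into 1536-well plates holding lung cancer cell lines after an overnight stay at 37 °C. Cells were fixed, permeabilised and Hoechst-stained in one step after 5 days without medium change, then imaged at 4×. Viability compares treated-well with vehicle-well nuclei, counted in MetaXpress, as a median across plates. Passing plates had control CV below 25% and at least one doubling.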

[2] = compound: Cn1cnc2c(F)c(Nc3ccc(Br)cc3Cl)c(C(=O)NOCCO)cc21 [Selumetinib]
Outline: as §1

[3] = compound: CC1(C)CCC(CN2CCN(c3ccc(C(=O)NS(=O)(=O)c4ccc(NCC5CCOCC5)c([N+](=O)[O-])c4)c(Oc4cnc5[nH]ccc5c4)c3)CC2)=C(c2ccc(Cl)cc2)C1 [Venetoclax] + CC1(C)CCC(c2ccc(Cl)cc2)=C(CN2CCN(c3ccc(C(=O)NS(=O)(=O)c4ccc(N[C@H](CCN5CCOCC5)CSc5ccccc5)c(S(=O)(=O)C(F)(F)F)c4)cc3)CC2)C1 [Navitoclax] (partner 0.5 µM)
Outline: (§2)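 Dosing by pin tool came one day after lung cancer cell lines were seeded in 1536-well plates, using either one drug or a fixed anchor-drug dose plus five library-drug doses (not always all listed) in √10 steps. After 5 days, nuclei were counted on 4× images. Relative viability is treated-well nuclei count divided by vehicle-well nuclei count, and values are medians of duplicate plates.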

[4] = compound: Cn1cnc2c(F)c(Nc3ccc(Br)cc3Cl)c(C(=O)NOCCO)cc21 [Selumetinib] + N=C(N)NC(=N)NCCc1ccccc1 [Phenformin] (partner 250 µM)
Outline: as §2

Cell Line	relative viability ([1]; 0.01 µM)	relative viability ([1]; 0.03162 µM)	relative viability ([1]; 0.1 µM)	relative viability ([1]; 0.3162 µM)	relative viability ([1]; 1 µM)	relative viability ([2]; 0.02 µM)	relative viability ([2]; 0.06325 µM)	relative viability ([2]; 0.2 µM)	relative viability ([2]; 0.6325 µM)	relative viability ([3]; first compound 0.01 µM)	relative viability ([3]; first compound 0.03162 µM)	relative viability ([3]; first compound 0.1 µM)	relative viability ([3]; first compound 0.3162 µM)	relative viability ([3]; first compound 1 µM)	relative viability ([4]; first compound 0.02 µM)	relative viability ([4]; first compound 0.06325 µM)	relative viability ([4]; first compound 0.2 µM)	relative viability ([4]; first compound 0.6325 µM)
HARA	0.903	1.08	0.926	1.06	0.993	0.903	0.819	0.824	0.718	0.996	1.17	1.1	1.11	1.15	0.502	0.387	0.48	0.299
NCI-H2087	0.921	1.03	0.821	1.01	1.02	0.849	0.672	0.48	0.318	1.01	0.982	0.921	0.942	0.974	0.367	0.279	0.294	0.214
NCI-H2405	1.03	1.14	0.978	0.996	0.914	1.02	0.923	0.861	0.686	0.865	1.02	–	0.941	0.91	0.344	0.319	0.296	0.164
NCI-H1944	1.14	0.937	0.951	1.05	0.891	0.946	0.791	0.673	0.643	1.03	1.09	0.99	1.06	1.09	0.192	0.195	0.157	0.168
NCI-H1793	0.933	0.993	0.787	0.887	0.784	0.709	0.682	0.561	0.457	0.375	0.454	0.287	0.461	0.382	0.364	0.349	0.316	0.273
NCI-H647	1.06	0.991	0.798	1	0.884	0.936	0.797	0.809	0.793	1.16	1.26	1.22	1.16	0.901	0.592	0.488	0.512	0.414
A549	0.984	0.99	0.994	0.969	0.937	0.864	0.669	0.656	0.449	1.29	1.25	1.23	1.17	1.08	0.132	0.14	0.143	0.0906
NCI-H596	1.01	0.972	0.941	0.925	0.888	0.9	0.881	0.889	0.729	0.892	0.935	0.916	0.887	0.919	0.894	0.695	0.751	0.564
EKVX	0.998	1	0.913	0.975	0.937	0.784	0.775	0.645	0.565	0.985	0.995	0.917	0.891	0.854	0.22	0.217	0.214	0.22
H3255	1	1.04	0.98	1.01	0.933	0.983	0.914	0.944	0.93	0.54	0.573	0.433	0.618	0.498	0.385	0.367	0.332	0.318
NCI-H1651	1.05	1.02	0.971	0.926	0.904	1.03	0.913	0.93	0.963	1.06	0.964	0.964	1.06	1.09	0.329	0.264	0.281	0.298
NCI-H1395	1.01	0.99	0.769	1.11	0.922	0.984	0.85	0.892	0.845	1.15	1.12	1.16	1.13	1.55	0.447	0.42	0.456	0.475
NCI-H23	1	1.06	0.85	1.07	0.877	1.05	0.78	0.758	0.674	0.869	0.774	0.774	0.82	0.704	0.834	0.706	0.774	0.519
NCI-H1355	0.957	0.983	1.01	1.03	0.904	0.949	0.85	0.749	0.743	0.892	0.972	0.804	0.915	0.897	0.435	0.43	0.391	0.373
NCI-H2085	0.873	1.08	1.03	0.969	0.928	0.863	0.844	0.881	0.788	0.952	1.16	1.17	1.26	1.06	0.637	0.623	0.602	0.481
NCI-H322M	1.05	0.982	0.899	1.06	0.938	0.83	0.681	0.651	0.624	1.25	1.11	1.11	1.35	1.16	0.668	0.561	0.57	0.574
NCI-H1915	0.954	1.03	0.937	0.991	0.92	1.07	0.84	0.666	0.581	0.763	0.79	0.733	0.788	0.779	0.423	0.371	0.271	0.284
